Measured values as given in ChEMBL document CHEMBL5465560, “Selectivity Literature for EUbOPEN Chemogenomic Library” (2024).
Blank lines part the entries; values can stand above or below the compound they belong to.

What was measured:
[1] = target: T1, Ephrin type-B receptor 1 (Homo sapiens) (UniProt P54762); settings: at 10 µM
T1 sequence (whole entry): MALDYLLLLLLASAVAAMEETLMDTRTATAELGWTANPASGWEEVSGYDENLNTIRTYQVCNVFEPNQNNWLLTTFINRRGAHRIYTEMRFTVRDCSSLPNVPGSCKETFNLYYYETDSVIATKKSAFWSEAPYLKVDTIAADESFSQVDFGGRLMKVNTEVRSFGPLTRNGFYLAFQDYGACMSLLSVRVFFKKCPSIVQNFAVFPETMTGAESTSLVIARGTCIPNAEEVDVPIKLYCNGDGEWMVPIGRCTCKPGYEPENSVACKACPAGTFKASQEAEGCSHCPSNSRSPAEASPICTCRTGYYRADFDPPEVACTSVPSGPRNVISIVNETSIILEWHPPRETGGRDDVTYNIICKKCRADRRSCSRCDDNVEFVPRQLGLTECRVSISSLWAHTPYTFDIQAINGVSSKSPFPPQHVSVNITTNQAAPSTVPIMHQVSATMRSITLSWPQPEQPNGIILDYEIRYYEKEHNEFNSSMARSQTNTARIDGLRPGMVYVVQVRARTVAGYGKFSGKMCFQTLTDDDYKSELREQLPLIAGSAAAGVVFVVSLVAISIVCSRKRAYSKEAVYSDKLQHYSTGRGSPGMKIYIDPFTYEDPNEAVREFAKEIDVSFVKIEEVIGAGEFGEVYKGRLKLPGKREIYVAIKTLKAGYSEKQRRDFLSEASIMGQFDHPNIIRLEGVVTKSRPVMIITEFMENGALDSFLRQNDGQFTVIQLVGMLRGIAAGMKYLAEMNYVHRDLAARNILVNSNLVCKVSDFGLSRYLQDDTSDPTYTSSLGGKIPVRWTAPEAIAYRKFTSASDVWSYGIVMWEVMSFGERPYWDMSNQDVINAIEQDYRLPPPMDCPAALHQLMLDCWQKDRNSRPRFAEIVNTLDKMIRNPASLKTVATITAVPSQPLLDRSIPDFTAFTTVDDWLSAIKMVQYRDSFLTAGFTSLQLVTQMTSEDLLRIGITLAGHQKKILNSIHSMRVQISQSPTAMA

[2] = target: Serine/threonine-protein kinase 32C (Homo sapiens) (UniProt Q86UX6); test: Selectivity interaction (KinomeScan (DiscoverX)) EUB0000655a STK32C; settings: at 10 µM
[3] = target: Phosphatidylinositol 4,5-bisphosphate 3-kinase catalytic subunit alpha isoform (Homo sapiens) (UniProt P42336); test: (§1) Selectivity interaction (KinomeScan (DiscoverX)) EUB0001079a PIK3CA; settings: at 1 µM
Chain of Phosphatidylinositol 4,5-bisphosphate 3-kinase catalytic subunit alpha isoform (Homo sapiens) (P42336 whole entry, canonical isoform): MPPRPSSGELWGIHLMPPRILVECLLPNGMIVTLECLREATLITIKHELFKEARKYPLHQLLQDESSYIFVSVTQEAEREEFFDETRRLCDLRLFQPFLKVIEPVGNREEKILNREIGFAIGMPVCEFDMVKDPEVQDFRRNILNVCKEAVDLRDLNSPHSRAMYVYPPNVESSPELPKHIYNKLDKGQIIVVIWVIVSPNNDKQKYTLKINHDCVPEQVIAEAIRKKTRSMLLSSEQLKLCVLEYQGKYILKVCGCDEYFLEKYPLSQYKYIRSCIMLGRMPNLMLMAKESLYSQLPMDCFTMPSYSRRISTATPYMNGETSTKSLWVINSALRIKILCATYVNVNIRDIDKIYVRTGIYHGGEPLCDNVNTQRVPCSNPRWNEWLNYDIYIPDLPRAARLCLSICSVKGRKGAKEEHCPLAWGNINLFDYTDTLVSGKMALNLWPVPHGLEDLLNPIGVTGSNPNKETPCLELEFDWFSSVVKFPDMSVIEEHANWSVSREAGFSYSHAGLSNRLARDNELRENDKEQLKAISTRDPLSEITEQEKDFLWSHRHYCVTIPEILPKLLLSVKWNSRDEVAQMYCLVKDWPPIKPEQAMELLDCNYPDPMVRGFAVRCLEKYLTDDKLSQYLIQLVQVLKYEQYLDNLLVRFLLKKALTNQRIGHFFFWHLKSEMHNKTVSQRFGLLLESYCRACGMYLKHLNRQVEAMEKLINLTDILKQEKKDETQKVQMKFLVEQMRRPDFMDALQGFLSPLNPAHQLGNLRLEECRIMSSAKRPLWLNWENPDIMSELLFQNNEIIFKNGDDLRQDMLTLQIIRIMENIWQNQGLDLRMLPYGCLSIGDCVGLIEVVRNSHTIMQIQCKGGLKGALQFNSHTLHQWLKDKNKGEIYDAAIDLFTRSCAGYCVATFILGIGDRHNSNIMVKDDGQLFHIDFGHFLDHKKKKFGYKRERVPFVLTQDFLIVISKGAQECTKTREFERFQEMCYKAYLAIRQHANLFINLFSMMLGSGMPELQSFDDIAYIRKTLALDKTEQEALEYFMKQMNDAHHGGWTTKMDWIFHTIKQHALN

[4] = tested on: Phosphatidylinositol 4,5-bisphosphate 3-kinase catalytic subunit alpha isoform (Homo sapiens), P42336 [C420R]; test: as §1; settings: at 1 µM
[5] = tested on: Phosphatidylinositol 4,5-bisphosphate 3-kinase catalytic subunit alpha isoform (Homo sapiens), P42336 [E542K]; test: as §1; settings: at 1 µM
Chain of Phosphatidylinositol 4,5-bisphosphate 3-kinase catalytic subunit alpha isoform (Homo sapiens), P42336 [E542K] (P42336 whole entry E542K, canonical isoform): as the sequence (P42336 whole entry, canonical isoform) above, with E542K counted along it

[6] = tested on: Phosphatidylinositol 4,5-bisphosphate 3-kinase catalytic subunit alpha isoform (Homo sapiens), P42336 [E545A]; test: as §1; settings: at 1 µM
Chain of Phosphatidylinositol 4,5-bisphosphate 3-kinase catalytic subunit alpha isoform (Homo sapiens), P42336 [E545A] (P42336 whole entry E545A, canonical isoform): as the sequence (P42336 whole entry, canonical isoform) above, with E545A counted along it

[7] = tested on: Phosphatidylinositol 4,5-bisphosphate 3-kinase catalytic subunit alpha isoform (Homo sapiens), P42336 [E545K]; test: as §1; settings: at 1 µM
[8] = tested on: Phosphatidylinositol 4,5-bisphosphate 3-kinase catalytic subunit alpha isoform (Homo sapiens), P42336 [H1047L]; test: as §1; settings: at 1 µM
Chain of Phosphatidylinositol 4,5-bisphosphate 3-kinase catalytic subunit alpha isoform (Homo sapiens), P42336 [H1047L] (P42336 whole entry H1047L, canonical isoform): as the sequence (P42336 whole entry, canonical isoform) above, with H1047L counted along it

[9] = tested on: Phosphatidylinositol 4,5-bisphosphate 3-kinase catalytic subunit alpha isoform (Homo sapiens), P42336 [H1047Y]; test: as §1; settings: at 1 µM
[10] = tested on: Phosphatidylinositol 4,5-bisphosphate 3-kinase catalytic subunit alpha isoform (Homo sapiens), P42336 [I800L]; test: as §1; settings: at 1 µM
[11] = tested on: Phosphatidylinositol 4,5-bisphosphate 3-kinase catalytic subunit alpha isoform (Homo sapiens), P42336 [M1043I]; test: as §1; settings: at 1 µM
[12] = tested on: Phosphatidylinositol 4,5-bisphosphate 3-kinase catalytic subunit alpha isoform (Homo sapiens), P42336 [Q546K]; test: as §1; settings: at 1 µM
[13] = target: RAC-alpha serine/threonine-protein kinase (Homo sapiens, UniProt P31749); test: Selectivity interaction (SelectScreen profiling (Invitrogen)) EUB0000607a AKT1; settings: at 2 µM
[14] = target: Vascular endothelial growth factor receptor 3 (Homo sapiens, UniProt P35916); test: Selectivity interaction (KinomeScan (DiscoverX)) EUB0000607a FLT4; settings: at 10 µM
[15] = target: Ribosomal protein S6 kinase alpha-1 (Homo sapiens, UniProt Q15418); test: Selectivity interaction (ActivX KiNativ screen (kinase selectivity in THP-1 cell lysates)) EUB0000639a RPS6KA1; format: subcellular; settings: lysate, at 5 µM
[16] = target: T2, Serine/threonine-protein kinase MAK (Homo sapiens) (UniProt P20794); test: Selectivity interaction (KinomeScan (DiscoverX)) EUB0000229b MAK; settings: at 10 µM
T2 sequence (whole entry): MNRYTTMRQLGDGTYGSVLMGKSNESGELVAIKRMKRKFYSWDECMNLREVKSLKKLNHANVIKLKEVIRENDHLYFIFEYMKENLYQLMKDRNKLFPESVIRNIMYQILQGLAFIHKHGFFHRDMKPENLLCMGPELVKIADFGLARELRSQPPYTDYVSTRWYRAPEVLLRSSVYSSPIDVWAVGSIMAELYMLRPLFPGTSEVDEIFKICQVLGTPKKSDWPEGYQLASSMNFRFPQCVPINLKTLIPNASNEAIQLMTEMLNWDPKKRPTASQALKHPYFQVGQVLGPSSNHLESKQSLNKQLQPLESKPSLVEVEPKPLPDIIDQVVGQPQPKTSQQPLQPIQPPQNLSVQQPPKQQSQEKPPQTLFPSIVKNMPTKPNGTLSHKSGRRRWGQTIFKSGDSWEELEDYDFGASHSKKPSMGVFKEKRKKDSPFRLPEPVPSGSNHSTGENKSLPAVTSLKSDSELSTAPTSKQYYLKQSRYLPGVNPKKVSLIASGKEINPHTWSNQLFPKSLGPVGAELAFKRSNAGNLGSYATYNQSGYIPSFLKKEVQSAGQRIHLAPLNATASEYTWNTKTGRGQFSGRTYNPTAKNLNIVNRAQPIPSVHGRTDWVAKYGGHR

[17] = target: Serine/threonine-protein kinase 35 (Homo sapiens) (UniProt Q8TDR2); test: Selectivity interaction (KinomeScan (DiscoverX)) EUB0000229b STK35; settings: at 10 µM
[18] = target: Cyclin-dependent kinase 5/CDK5 activator 1 (Homo sapiens) (UniProt Q00535+Q15078); test: Selectivity interaction (ProQinase) EUB0000171b CDK5; format: protein-complex assay
Chain of Cyclin-dependent kinase 5/CDK5 activator 1 (Homo sapiens) (Q00535 whole entry): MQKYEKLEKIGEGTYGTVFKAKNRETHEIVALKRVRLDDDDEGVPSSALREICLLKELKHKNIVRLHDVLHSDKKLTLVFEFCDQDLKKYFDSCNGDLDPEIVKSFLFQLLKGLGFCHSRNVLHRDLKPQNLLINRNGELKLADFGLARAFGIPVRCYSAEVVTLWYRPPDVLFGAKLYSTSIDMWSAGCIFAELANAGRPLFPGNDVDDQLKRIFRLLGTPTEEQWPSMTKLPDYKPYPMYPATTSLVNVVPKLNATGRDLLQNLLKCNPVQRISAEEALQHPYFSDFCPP
Chain of Cyclin-dependent kinase 5/CDK5 activator 1 (Homo sapiens) (Q15078 99-307 partner limits assumed): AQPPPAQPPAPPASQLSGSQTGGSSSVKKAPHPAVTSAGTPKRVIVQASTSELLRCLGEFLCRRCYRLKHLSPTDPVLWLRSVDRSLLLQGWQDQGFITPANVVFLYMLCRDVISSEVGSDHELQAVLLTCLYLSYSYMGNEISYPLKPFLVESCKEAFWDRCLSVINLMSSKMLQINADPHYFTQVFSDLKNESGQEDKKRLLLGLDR

[19] = target: 5'-AMP-activated protein kinase catalytic subunit alpha-2 (Homo sapiens) (UniProt P54646); test: Selectivity interaction (KinomeScan (DiscoverX)) EUB0001049a PRKAA2; settings: at 1 µM
[20] = target: Acetylcholine receptor subunit alpha (Homo sapiens, UniProt P02708); test: Selectivity interaction (Panel of kinases, GPCRs, ion channels and transporters (enzymatic assay)) EUB0000223bCl CHRNA1
[21] = target: Serine/threonine-protein kinase Chk2 (Homo sapiens) (UniProt O96017); test: Selectivity interaction (KinomeScan (DiscoverX)) EUB0000666a CHEK2; settings: at 10 µM

% of control [1]: 100%
Compound: CCN(CC)CCCCNc1ncc2cc(-c3cc(OC)cc(OC)c3)c(NC(=O)NC(C)(C)C)nc2n1

Compound: CN(C)CCOc1ccc(-c2nc(-c3ccncc3)c(-c3ccc4c(c3)CC/C4=N\O)[nH]2)cc1
% of control [2]: 100%

Compound: Nc1cnc(N2CCc3cc(S(=O)(=O)Nc4c(F)cc(Cl)cc4F)cc(N4CCCC4=O)c32)nc1 [TP-020n]
% of control [3]: 76%
% of control [4]: 84%
% of control [5]: 72%
% of control [6]: 100%
% of control [7]: 100%
% of control [8]: 60%
% of control [9]: 100%
% of control [10]: 80%
% of control [11]: 100%
% of control [12]: 78%

Compound: CNC(=O)Nc1ccc(-c2nc(N3CC4CCC(C3)O4)c3cnn(C4CCC5(CC4)OCCO5)c3n2)cc1
% of inhibition [13]: -5%
% of control [14]: 88%

% of inhibition [15]: -38%
Compound: CC[C@@H]1[C@H](F)C(=O)N[C@@H]1COc1nccc2cc(C(N)=O)c(OC)cc12 [ZIMLOVISERTIB]

Compound: COc1cc(N(C)c2ccnc3ccc(C(F)(F)F)cc23)cc(OC)c1OC
% binding [16]: 79%
% binding [17]: 90%

% of control ([18]; at 1 µM): 77%
% of control ([18]; at 5 µM): 54%
Compound: C=CC(=O)Nc1cccc(C(=O)Nc2ccc(Nc3cc(-c4[nH]c(SC)nc4C)ccn3)cc2)c1

Compound: COc1cc(Nc2nc(C)cc(-c3cnn4nc(OC)ccc34)n2)cc(C(F)(F)F)c1
% of control [19]: 100%

Compound: COc1cc(C(=O)N2CC[C@@H](O)[C@@H](N)C2)cc2nc(-c3cc4ccccc4n3CC3CC3)n(C)c12
pXC50 [20]: < 4.3 M

Compound: O=C(NOC[C@H](O)CO)c1ccc(F)c(F)c1Nc1ccc(I)cc1F
% of control [21]: 86%
